# Test results reported in patent publication US9700516B2, “Compositions and methods for reducing overdose” (priority 2014, dated 2017).
# Assay: Effect of alkalinizing agents on the pH of a solution of 0.1 N HCl with a starting pH of 2.0
# Format: physicochemical
# Experimental: Various alkalinizing agents were added to a solution of 0.1 N HCl with a starting pH of 2.0 and the pH of the solution was tested at different time points.
smiles,measurement,setting,value
[Mg+2].[OH-].[OH-] [magnesium hydroxide],pH,"60 mg per 320 mL, 2 min",2.29
same,pH,"60 mg per 320 mL, 3 min",2.41
same,pH,"60 mg per 320 mL, 4 min",2.47
same,pH,"60 mg per 320 mL, 5 min",2.48
same,pH,"60 mg per 320 mL, 6 min",2.48
same,pH,"60 mg per 320 mL, 7 min",2.49
same,pH,"60 mg per 320 mL, 8 min",2.49
same,pH,"60 mg per 320 mL, 9 min",2.49
same,pH,"60 mg per 320 mL, 10 min",2.49
same,pH,"60 mg per 320 mL, 20 min",2.50
same,pH,"60 mg per 500 mL, 2 min",2.12
same,pH,"60 mg per 500 mL, 3 min",2.17
same,pH,"60 mg per 500 mL, 4 min",2.18
same,pH,"60 mg per 500 mL, 5 min",2.19
same,pH,"60 mg per 500 mL, 6 min",2.19
same,pH,"60 mg per 500 mL, 7 min",2.19
same,pH,"60 mg per 500 mL, 8 min",2.19
same,pH,"60 mg per 500 mL, 9 min",2.19
same,pH,"60 mg per 500 mL, 10 min",2.19
same,pH,"60 mg per 500 mL, 20 min",2.19
same,effect on pH of the solution,"71 mg/200 ml, 81 mg/200 ml and 100 mg/200 ml",raised the pH of the solution to neutral or higher
same,pH,"90 mg per 320 mL, 2 min",2.37
same,pH,"90 mg per 320 mL, 3 min",2.55
same,pH,"90 mg per 320 mL, 4 min",2.77
same,pH,"90 mg per 320 mL, 5 min",3.06
same,pH,"90 mg per 320 mL, 6 min",3.13
same,pH,"90 mg per 320 mL, 7 min",3.22
same,pH,"90 mg per 320 mL, 8 min",3.28
same,pH,"90 mg per 320 mL, 9 min",3.31
same,pH,"90 mg per 320 mL, 10 min",3.33
same,pH,"90 mg per 320 mL, 20 min",3.34
same,pH,"100 mg per 320 mL, 2 min",2.36
same,pH,"100 mg per 320 mL, 3 min",2.53
same,pH,"100 mg per 320 mL, 4 min",2.74
same,pH,"100 mg per 320 mL, 5 min",3.07
same,pH,"100 mg per 320 mL, 6 min",3.39
same,pH,"100 mg per 320 mL, 7 min",3.73
same,pH,"100 mg per 320 mL, 8 min",4.26
same,pH,"100 mg per 320 mL, 9 min",5.41
same,pH,"100 mg per 320 mL, 10 min",5.86
same,pH,"100 mg per 320 mL, 20 min",6.51
same,pH,"100 mg per 500 mL, 2 min",2.21
same,pH,"100 mg per 500 mL, 3 min",2.33
same,pH,"100 mg per 500 mL, 4 min",2.38
same,pH,"100 mg per 500 mL, 5 min",2.40
same,pH,"100 mg per 500 mL, 6 min",2.40
same,pH,"100 mg per 500 mL, 7 min",2.41
same,pH,"100 mg per 500 mL, 8 min",2.41
same,pH,"100 mg per 500 mL, 9 min",2.41
same,pH,"100 mg per 500 mL, 10 min",2.41
same,pH,"100 mg per 500 mL, 20 min",2.41
same,effect on pH of the solution,"100 mg/320 ml, 180 mg/500 ml, 120 mg/320 ml, 200 mg/500 ml and 240 mg/500 ml",rapidly raised the pH of the solution to neutral or higher
same,pH,"120 mg per 320 mL, 2 min",2.49
same,pH,"120 mg per 320 mL, 3 min",2.87
same,pH,"120 mg per 320 mL, 4 min",3.54
same,pH,"120 mg per 320 mL, 5 min",5.75
same,pH,"120 mg per 320 mL, 6 min",6.65
same,pH,"120 mg per 320 mL, 7 min",7.81
same,pH,"120 mg per 320 mL, 8 min",8.55
same,pH,"120 mg per 320 mL, 9 min",8.83
same,pH,"120 mg per 320 mL, 10 min",8.94
same,pH,"120 mg per 320 mL, 20 min",9.20
same,pH,"120 mg per 500 mL, 2 min",2.21
same,pH,"120 mg per 500 mL, 3 min",2.35
same,pH,"120 mg per 500 mL, 4 min",2.44
same,pH,"120 mg per 500 mL, 5 min",2.52
same,pH,"120 mg per 500 mL, 6 min",2.57
same,pH,"120 mg per 500 mL, 7 min",2.59
same,pH,"120 mg per 500 mL, 8 min",2.59
same,pH,"120 mg per 500 mL, 9 min",2.59
same,pH,"120 mg per 500 mL, 10 min",2.59
same,pH,"120 mg per 500 mL, 20 min",2.60
same,effect on pH of the solution,160 mg/320 ml (0.5 mg/ml),rapidly raised the pH of the solution to neutral or higher
same,pH,"180 mg per 500 mL, 2 min",2.56
same,pH,"180 mg per 500 mL, 3 min",3.09
same,pH,"180 mg per 500 mL, 4 min",3.90
same,pH,"180 mg per 500 mL, 5 min",5.69
same,pH,"180 mg per 500 mL, 6 min",6.28
same,pH,"180 mg per 500 mL, 7 min",6.64
same,pH,"180 mg per 500 mL, 8 min",7.01
same,pH,"180 mg per 500 mL, 9 min",7.61
same,pH,"180 mg per 500 mL, 10 min",8.25
same,pH,"180 mg per 500 mL, 20 min",9.07
same,pH,"200 mg per 500 mL, 2 min",2.48
same,pH,"200 mg per 500 mL, 3 min",2.81
same,pH,"200 mg per 500 mL, 4 min",3.54
same,pH,"200 mg per 500 mL, 5 min",5.42
same,pH,"200 mg per 500 mL, 6 min",6.63
same,pH,"200 mg per 500 mL, 7 min",7.99
same,pH,"200 mg per 500 mL, 8 min",8.86
same,pH,"200 mg per 500 mL, 9 min",9.07
same,pH,"200 mg per 500 mL, 10 min",9.18
same,pH,"200 mg per 500 mL, 20 min",9.41
same,pH,"240 mg per 500 mL, 2 min",2.54
same,pH,"240 mg per 500 mL, 3 min",3.14
same,pH,"240 mg per 500 mL, 4 min",5.90
same,pH,"240 mg per 500 mL, 5 min",7.73
same,pH,"240 mg per 500 mL, 6 min",9.09
same,pH,"240 mg per 500 mL, 7 min",9.35
same,pH,"240 mg per 500 mL, 8 min",9.47
same,pH,"240 mg per 500 mL, 9 min",9.54
same,pH,"240 mg per 500 mL, 10 min",9.59
same,pH,"240 mg per 500 mL, 20 min",9.71
same,pH of the solution,"all tested amounts, over the times tested",above 2.0
